Bounds are passed on as bounds.

Usually melting point stands for the temperature, or range, at which the solid turns liquid. In turn, `COc1ccccc1C=CC=CC(=O)c1cc(OC)c(OC)c(OC)c1` registered a melting point of 111 °C.
Compound `COc1ccc2c(c1)c(Cc1nc(-c3ccc(Cl)cc3)cs1)c(C)n2C(=O)c1ccc(Cl)cc1` displayed a melting point of 186 to 188 °C.
The compound `O=C(O)c1nc2cc(N3CCN(Cc4ccccc4)CC3)c([N+](=O)[O-])cc2[nH]c1=O` had a melting point of 278 to 280 °C.
The value for `CC(=O)Nc1nc(CCCCl)cs1` was 110 to 112 °C.
The value for `COCOc1cccc2cccc(C=O)c12` was 56 to 57 °C; that for `O=[N+]([O-])c1cccc2c1CN(Cc1ccccc1)C2` was 77.5 to 78 °C.
`CCN(CC)c1nc(Cc2ccc(OC)c(OC)c2)nc2sc(C#N)c(C)c12` showed a melting point of 107 to 109 °C.
The value for `COc1ccc(C(=O)c2ccc3c(c2)CC(C(=O)O)C3)cc1` (stereo unspecified) was 149 to 151 °C.
Regarding `O=c1ccoc(C(O)c2ccc3ccccc3c2)c1OCc1ccccc1` (stereo unspecified), the melting point fell in the range of 159 to 160 °C.
The value for `O=C1CCCC(=O)N1c1cc(Cc2n[nH]c(=O)c3ccccc23)ccc1F` was 259 to 263 °C.
On to `CC(=CC#N)CCN1C(=O)c2ccccc2S1(=O)=O`, for which the melting point fell in the range of 117 to 118 °C.
Turning to `Cc1ccc(C(SCCN(C)CCCCN=C(NC#N)NCCSCc2csc(NC(=N)N)n2)c2ccccc2)cc1` (stereo unspecified), the melting point was 134 to 140 °C.
Under `O=c1nc(-c2cccc(Cl)c2)c2cc(Br)ccc2[nH]1` stands 281 °C; under `CNC(=O)N(C)c1nnc(SCc2ccccc2)s1`, 139 to 142 °C; under `CC1=C(C(=O)O)N2C(=O)C(=NSc3ccc(C)cc3)C2SC1` (stereo unspecified), 186 to 187 °C.
Under `CC(Cc1cccc(Cl)c1)(NC=O)c1ccccc1` (stereo unspecified) stands 108 to 109 °C; under `CCOC(=O)c1cn(-c2cc(N)c(F)cc2F)c2c(OC)c(F)c(F)cc2c1=O`, 159 to 162 °C.
In turn, `CCOC(=O)c1ccc(-c2cccc3cncn23)cc1` yielded a melting point of 118 to 119 °C.
Turning to `COC(=O)CCCCCc1c(OC)cc(C(C)(C)C)c(O)c1NC(=O)NNC(=O)Nc1cc(OC)cc(C(C)(C)C)c1O`, the melting point fell in the range of 157 to 159 °C.
The value for `CS(=O)(=O)c1ccc(-c2sc(-c3ccccc3Cl)nc2-c2ccccc2)cc1` was 192 to 195 °C.
Compound `O=C(Oc1ccc(F)cc1)c1cc(C(F)(F)F)cc(C(F)(F)F)c1` gave a melting point of 60 to 61 °C.
Regarding `Cc1c(C(=O)Nc2ccc(N3CCC(N4CCOCC4)CC3)c(Br)c2)cnn1-c1ccc(Cl)cc1`, the melting point was in the range of 205 to 210 °C.
Turning to `CS(=O)(=O)c1cccc(S(N)(=O)=O)c1`, the melting point was in the range of 99.5 to 101 °C.
As for `O=C(O)[C@H]1CN(C(=O)OCc2ccccc2)CCN1c1cc(Cl)ccc1[N+](=O)[O-]`, the melting point lay within 145 to 155 °C.
In turn, `COc1cc(-n2c(=O)cc(C(F)(F)F)n(C)c2=O)c(F)cc1Cl` displayed a melting point of 128 to 130 °C.
In turn, `COc1ccc(SCCCCN2C(=O)c3ccccc3C2=O)cc1` showed a melting point of 61 to 62 °C.
Under `COC(=O)N1CC[C@H](Nc2nc3cncnc3n2Cc2ccc(F)cc2)[C@H](C)C1` (relative stereo) stands 152 °C; under `FC(F)(F)c1ccc(Cl)c(-c2cccn3nc(Cl)nc23)c1`, 156 to 158 °C.
Under `CCCc1c(OCCCCC#N)ccc(C(=O)c2ccccc2O)c1O` stands 81 to 82 °C; under `Cc1ccc(NCc2ccc(C(=O)Nc3ccccc3NC(=O)OC(C)(C)C)cc2)cc1Nc1nccc(-c2cccnc2)n1`, 125 °C; under `CCc1cn(C2CC(OC(C)=O)C(CNC(=O)Cc3ccccc3NC(C)=O)O2)c(=O)[nH]c1=O` (stereo unspecified), 143 to 145 °C.
Compound `O=C(Nc1ccc2c(c1)OCCO2)c1ccc(-c2cccs2)cc1` came in with a melting point of 192 to 195 °C.
The value for `Cc1ccnc(N)c1C` was 79.5 to 81 °C; that for `COc1ccc(CS(=O)c2cc(OC)c(OC)c(OC)c2)cc1` (stereo unspecified) was 103 to 105 °C.
In the case of `N#CCON=C(C(=O)O)c1csc(NC(c2ccccc2)(c2ccccc2)c2ccccc2)n1`, the melting point is 180 °C.
Under `O=C(CCCCCCC(=O)N1CCN(CCc2ccc3ccccc3c2)CC1)NO` stands 118 to 120 °C; under `CCOC(=O)CCc1ccc(C(C)(C)C)c(NC(=O)CC2c3ccccc3Oc3ccccc32)c1`, 160 to 162 °C.
Under `COc1cc2nc(S(=O)Cc3nccc(N(C)C)c3F)[nH]c2cc1OC` (stereo unspecified) stands 208 to 210 °C; under `Cc1ccc2nc(NC(=O)c3ccc(C(C)(C)CCc4noc(=O)[nH]4)cc3)cn2c1`, 267 to 268 °C.
The value for `Cc1ncc2n1-c1ccc(Cl)cc1C(c1ccccc1)=NC2` was 187 to 188 °C.
The compound `CCc1c(C(C)(C)C)cc(C(C)(C)C)c(O)c1C(=O)Nc1ccc(S(=O)(=O)C(F)(F)F)cc1Cl` displayed a melting point of 157 to 158 °C.
The value for `O=C1Nc2cc(Cl)ccc2C(=O)C1c1ccccn1` (stereo unspecified) was over 330 °C; that for `CCCOc1cc([N+](=O)[O-])cc2cc(C(=O)OC)oc12` was 157 °C; that for `Nc1ccccc1C(=O)NCCc1cccnc1` was 126 to 128 °C.
For `COC(=O)Oc1c(Cl)cc(Cl)cc1[N+](=O)[O-]`, the melting point lay in the range of 60 to 61 °C.
Compound `COc1ccc(C#Cc2cc(OC)c(OC)cc2C=O)cc1OC` showed a melting point of 148 to 149 °C.
The compound `COc1nc(NC(=O)NS(=O)(=O)Cc2ccccc2C(C)OC(C)=O)nc(OC)n1` (stereo unspecified) returned a melting point of 90 to 95 °C.
`CC(C)c1ccc2c(=O)cc(C(=O)O)[nH]c2c1` yielded a melting point of over 240 °C.
Under `CC(C)(C(=O)O)c1cn2nc(Cl)ccc2n1` stands 159 to 161 °C.
In turn, `O=C1N(CO)c2cccc(Cl)c2C1(CO)c1cc2c(cc1O)OCO2` (stereo unspecified) had a melting point of over 210 °C.
The value for `COc1c(C)cc2c(c1C)C[C@@H]1c3ccccc3N[C@H]21` (relative stereo) was 117 °C; that for `Cc1ccc(C(=O)Nc2ccc(-n3nc(C(F)(F)F)cc3C(F)(F)F)cc2)c(Cl)n1` was 155 to 156 °C.
The value for `COC(=O)CCc1ccc(OCC(C)NCC(O)c2cccc(Cl)c2)cc1` (stereo unspecified) was 65 to 73 °C.
The value for `COC(=O)c1cc(OC)c(OS(=O)(=O)C(F)(F)F)cc1[N+](=O)[O-]` was 69 to 70 °C.
As for `CCOC(=O)C=N[C@@H]1c2cc(C#N)ccc2OC(C)(C)[C@H]1O` (relative stereo), the melting point was 98 to 100 °C.
`COc1ccc(-c2nc(N)ncc2-c2ccc(=O)[nH]n2)cc1OC`: the melting point amounted to 225 °C.
`CCc1nc2c(N)nc3c(c2n1CC(C)(C)OCCS(C)(=O)=O)CCCC3` had a melting point of 225 to 227 °C.
On to `COCCc1cccc2oc(C(=O)Nc3ccc(-c4ccc(S(=O)(=O)NC(C(=O)OC)C(C)C)cc4)cc3)c(C)c12` (stereo unspecified), for which the melting point lay within 67 to 70 °C.
Turning to `COc1ccc(-c2cc(=O)c3c(O)cc(O)c(-c4cc(-c5cc(=O)c6c(O)cc(OC)cc6o5)ccc4OC)c3o2)cc1`, the melting point is 295 to 298 °C.
Under `CCOC(=O)C(=O)CC(=O)c1cn(Cc2ccc(O)cc2)c2ccccc2c1=O` stands 179 to 181 °C; under `O=C(NC(=O)c1cc(F)c(F)cc1Cl)Nc1ccc(C(=O)O)cc1OC(F)(F)F`, 236 °C; under `CON(Cc1ccc(NC(C)=O)cc1)C(=O)C1=C(O)C(=O)N(C)C1`, 110 °C.
The value for `CC(C)(CNC(=O)c1ccccc1-c1ccccc1C(=O)O)SN=O` was 121 to 123 °C; that for `COc1ccc2ccc(N3C(=O)c4ccccc4C3OCc3cccnc3)nc2n1` (stereo unspecified) was 175 °C.
Regarding `O=C(O)c1cn(-c2ccc(F)cc2)c2c(F)c(N3Cc4ccc(F)cc4C3)c(F)cc2c1=O`, the melting point was over 300 °C.
Under `CC(C)Oc1cc(O)c2c(=O)cc(Sc3ccc(O)cc3)oc2c1` stands 205 to 207 °C; under `COc1ccc(CCOc2cncc(-c3cccc(C(=O)O)c3)c2)cc1OC`, 181 to 182 °C.
Under `CC(C)[C@@H]1CC[C@@H](C)C[C@H]1C(=O)Nc1ccc(CC#N)cc1` stands 146 to 150 °C.
The value for `Cc1cc(Nc2nccc(-c3sc(CO)nc3C)n2)ccc1N1CCOCC1` was 93 to 94 °C.
Turning to `O=[N+]([O-])c1cccc(OCc2ccc3ccccc3n2)c1`, the melting point was 109 °C.
The value for `NC(=NO)c1cccc(Oc2ccc3c(c2)S(=O)(=O)N=C2CCCN23)c1` was 165 to 169 °C.
For the compound `CCOCn1c(Br)c(Br)c(S(=O)(=O)C(F)(F)F)c1-c1ccc(Cl)cc1`, the melting point was 133 to 135 °C.
The compound `Nc1cccc2c(=O)[nH]ccc12` displayed a melting point of 258 to 259 °C.
Consider `Cc1c(SCc2ccsc2)ccnc1CSc1nc2ccccc2[nH]1`, for which the melting point lay in the range of 161 to 164 °C.
The value for `O=c1cc(-c2ccncc2)nc2n1CCC(C(F)(F)F)N2` (stereo unspecified) was 302 to 304 °C.
The value for `Cc1cn(C(c2ccccc2)(c2ccccc2)c2ccccc2)cn1` was 214 to 216 °C; that for `CCc1c(C)c2c(OC)cc(-c3ccc(C(C)C)cc3)cc2oc1=O` was 115 °C.
In turn, `CNC(=O)c1cnc(Cl)cc1-c1ccccc1C` returned a melting point of 91 to 93 °C.
Turning to `Cc1noc(-c2ccc(=O)n3c2-c2sc(-c4ccccc4)cc2SCC3)n1`, the melting point was 183 to 185 °C.
On to `CCOC(=O)C1=C(C)Nc2nc(N3CCOCC3)nc(N3CCOCC3)c2C1c1ccccc1C` (stereo unspecified), for which the melting point came to 234 °C.
The value for `CC(=O)OC1CSC(Oc2cnc(Cl)c(Cl)c2)C(OC(C)=O)C1OC(C)=O` (stereo unspecified) was 128 °C; that for `N#Cc1[nH]c(=O)n(-c2ccc(Cl)cc2)c1C#N` was 242 to 245 °C; that for `Cc1cc(C)c(C2C(=O)CC(c3ccccc3)CC2=O)c(C)c1` (stereo unspecified) was 215 to 216 °C.
`CCCCCCCCCCCCOC(=O)c1ccc(O)c(N)c1` registered a melting point of 86 to 89 °C.
Consider `CCOC(=O)c1cnc(-c2ccc(Cl)cc2)s1`, for which the melting point lay in the range of 144 to 145 °C.
For `COc1ccc(/C=C/S(=O)(=O)Nc2ccc(S(N)(=O)=O)cc2)cc1`, the melting point lay within 181 to 183 °C.

The record behind these values is a melting point compilation (Tetko et al.; mined from patent text by program, amines drawn as free bases though some values may be those of a salt).
